Among the data in ChEMBL document CHEMBL5291721, “A preclinical secondary pharmacology resource illuminates target-adverse drug reaction associations of marketed drugs” (Nat Commun, 2023) are AC50 values, retold here.

In assay [1] the target is Gamma-aminobutyric acid receptor subunit alpha-1 (Rattus norvegicus, UniProt P62813).
Assay [2] deals with T1, Equilibrative nucleoside transporter 1 (Homo sapiens, UniProt Q99808).
T1 sequence (Q99808 whole entry): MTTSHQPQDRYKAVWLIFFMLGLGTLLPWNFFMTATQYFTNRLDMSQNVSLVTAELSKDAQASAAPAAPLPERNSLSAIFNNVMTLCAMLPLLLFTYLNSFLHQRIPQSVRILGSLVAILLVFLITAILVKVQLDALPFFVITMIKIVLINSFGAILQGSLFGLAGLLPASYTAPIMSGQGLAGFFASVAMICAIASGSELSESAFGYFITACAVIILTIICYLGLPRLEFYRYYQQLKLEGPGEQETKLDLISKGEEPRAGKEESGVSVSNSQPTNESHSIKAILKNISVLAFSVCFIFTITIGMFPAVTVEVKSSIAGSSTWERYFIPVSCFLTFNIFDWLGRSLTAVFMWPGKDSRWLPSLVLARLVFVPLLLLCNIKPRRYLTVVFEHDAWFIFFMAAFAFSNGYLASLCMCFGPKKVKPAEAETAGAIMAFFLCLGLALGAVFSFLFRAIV

The target in assay [3] is T2, Alpha-1A adrenergic receptor (Homo sapiens, UniProt P35348).
T2 sequence (P35348 whole entry): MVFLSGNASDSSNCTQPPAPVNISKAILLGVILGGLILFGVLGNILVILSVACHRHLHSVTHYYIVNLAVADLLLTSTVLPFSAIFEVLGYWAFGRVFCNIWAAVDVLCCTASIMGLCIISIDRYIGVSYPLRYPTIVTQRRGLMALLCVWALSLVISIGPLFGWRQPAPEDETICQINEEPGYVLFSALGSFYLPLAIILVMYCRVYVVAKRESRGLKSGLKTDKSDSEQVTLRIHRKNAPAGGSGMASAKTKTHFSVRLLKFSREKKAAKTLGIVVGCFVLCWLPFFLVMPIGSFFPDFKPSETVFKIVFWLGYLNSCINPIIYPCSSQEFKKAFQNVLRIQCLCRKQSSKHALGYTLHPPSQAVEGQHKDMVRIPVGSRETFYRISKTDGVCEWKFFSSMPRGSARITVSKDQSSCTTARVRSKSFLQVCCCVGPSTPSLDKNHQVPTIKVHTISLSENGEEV
The class given is functional, cell-based.

Assay [4] has as its target D(1A) dopamine receptor (Homo sapiens, UniProt P21728). In kind it is functional, cell-based.
The target of assay [5] is T3, Muscarinic acetylcholine receptor M1 (Homo sapiens, UniProt P11229).
T3 sequence (P11229 whole entry): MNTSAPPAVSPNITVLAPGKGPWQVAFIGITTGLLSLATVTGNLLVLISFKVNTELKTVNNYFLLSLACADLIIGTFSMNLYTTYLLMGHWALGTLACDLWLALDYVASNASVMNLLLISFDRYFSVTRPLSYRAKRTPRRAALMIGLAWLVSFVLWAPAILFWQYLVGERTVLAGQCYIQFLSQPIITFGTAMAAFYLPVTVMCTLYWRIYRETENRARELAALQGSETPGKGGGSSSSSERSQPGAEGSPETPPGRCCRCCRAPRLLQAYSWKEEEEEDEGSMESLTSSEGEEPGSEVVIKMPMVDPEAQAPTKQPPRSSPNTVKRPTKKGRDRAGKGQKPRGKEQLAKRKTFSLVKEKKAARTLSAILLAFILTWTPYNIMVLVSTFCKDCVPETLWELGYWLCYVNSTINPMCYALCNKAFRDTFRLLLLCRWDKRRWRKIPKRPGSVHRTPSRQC
In kind it is functional, cell-based.

Assay [6] has as its target Vasopressin V1a receptor (Homo sapiens, UniProt P37288).
Assay [7] has as its target T4, Amine oxidase [flavin-containing] A (Homo sapiens, UniProt P21397).
T4 sequence (P21397 whole entry): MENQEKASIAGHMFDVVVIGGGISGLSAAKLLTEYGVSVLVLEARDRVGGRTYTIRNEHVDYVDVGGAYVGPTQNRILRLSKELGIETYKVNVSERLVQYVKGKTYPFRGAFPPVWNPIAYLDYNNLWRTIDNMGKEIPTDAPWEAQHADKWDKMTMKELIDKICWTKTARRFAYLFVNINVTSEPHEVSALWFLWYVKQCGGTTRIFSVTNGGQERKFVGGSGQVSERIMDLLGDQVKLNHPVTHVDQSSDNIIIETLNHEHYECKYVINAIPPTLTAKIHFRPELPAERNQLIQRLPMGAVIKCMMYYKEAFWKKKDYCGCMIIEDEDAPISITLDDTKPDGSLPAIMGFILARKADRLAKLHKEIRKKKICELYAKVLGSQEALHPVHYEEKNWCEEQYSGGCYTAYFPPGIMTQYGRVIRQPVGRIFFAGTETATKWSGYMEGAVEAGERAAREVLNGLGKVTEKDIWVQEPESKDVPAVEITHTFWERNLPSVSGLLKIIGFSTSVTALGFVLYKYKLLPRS
In kind it is functional.

The target of assay [8] is T5, Neuropeptide Y receptor type 1 (Homo sapiens, UniProt P25929).
T5 sequence (P25929 whole entry): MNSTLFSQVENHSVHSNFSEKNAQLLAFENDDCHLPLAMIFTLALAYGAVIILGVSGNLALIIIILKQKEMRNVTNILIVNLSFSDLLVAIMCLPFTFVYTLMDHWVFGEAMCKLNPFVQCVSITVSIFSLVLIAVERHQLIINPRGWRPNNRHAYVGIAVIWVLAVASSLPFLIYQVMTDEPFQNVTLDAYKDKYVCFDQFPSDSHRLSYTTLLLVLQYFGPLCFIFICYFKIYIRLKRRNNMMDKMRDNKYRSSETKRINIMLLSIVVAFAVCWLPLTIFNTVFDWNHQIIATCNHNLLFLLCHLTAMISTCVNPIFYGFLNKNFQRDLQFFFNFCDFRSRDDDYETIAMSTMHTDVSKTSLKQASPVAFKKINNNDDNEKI

Assay [9] concerns the target Vasopressin V2 receptor (Homo sapiens, UniProt P30518).
Assay [10] has as its target Neuronal acetylcholine receptor subunit alpha-4 (Homo sapiens, UniProt P43681).
The target in assay [11] is Delta-type opioid receptor (Homo sapiens, UniProt P41143).
For assay [12], the target named is Sodium-dependent serotonin transporter (Homo sapiens, UniProt P31645).

SMILES strings stand for the structures.
Further: assay procedure not described here.

Vasopressin V1a receptor, sequence (P37288 whole entry): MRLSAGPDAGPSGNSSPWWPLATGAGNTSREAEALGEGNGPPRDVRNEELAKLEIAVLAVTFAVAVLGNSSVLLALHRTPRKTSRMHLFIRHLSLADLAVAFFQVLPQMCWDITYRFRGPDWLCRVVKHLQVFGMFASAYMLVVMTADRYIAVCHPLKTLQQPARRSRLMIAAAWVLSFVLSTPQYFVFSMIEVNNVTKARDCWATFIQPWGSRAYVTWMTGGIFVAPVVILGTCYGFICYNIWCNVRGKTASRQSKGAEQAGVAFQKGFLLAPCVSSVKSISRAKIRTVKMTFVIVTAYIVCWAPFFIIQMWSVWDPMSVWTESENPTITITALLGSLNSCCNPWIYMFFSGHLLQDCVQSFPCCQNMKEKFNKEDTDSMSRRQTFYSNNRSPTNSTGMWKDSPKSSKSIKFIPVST
Vasopressin V2 receptor, sequence (P30518 whole entry): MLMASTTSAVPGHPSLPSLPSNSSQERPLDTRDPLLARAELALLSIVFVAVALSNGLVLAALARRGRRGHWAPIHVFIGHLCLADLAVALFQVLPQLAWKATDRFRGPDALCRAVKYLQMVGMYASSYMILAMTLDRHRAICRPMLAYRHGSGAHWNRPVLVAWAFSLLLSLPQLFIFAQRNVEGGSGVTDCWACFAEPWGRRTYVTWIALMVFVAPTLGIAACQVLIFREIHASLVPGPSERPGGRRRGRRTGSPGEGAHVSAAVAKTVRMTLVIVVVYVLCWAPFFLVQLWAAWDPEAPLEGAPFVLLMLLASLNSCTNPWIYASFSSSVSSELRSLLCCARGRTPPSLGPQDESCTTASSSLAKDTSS
Neuronal acetylcholine receptor subunit alpha-4, sequence (P43681 whole entry): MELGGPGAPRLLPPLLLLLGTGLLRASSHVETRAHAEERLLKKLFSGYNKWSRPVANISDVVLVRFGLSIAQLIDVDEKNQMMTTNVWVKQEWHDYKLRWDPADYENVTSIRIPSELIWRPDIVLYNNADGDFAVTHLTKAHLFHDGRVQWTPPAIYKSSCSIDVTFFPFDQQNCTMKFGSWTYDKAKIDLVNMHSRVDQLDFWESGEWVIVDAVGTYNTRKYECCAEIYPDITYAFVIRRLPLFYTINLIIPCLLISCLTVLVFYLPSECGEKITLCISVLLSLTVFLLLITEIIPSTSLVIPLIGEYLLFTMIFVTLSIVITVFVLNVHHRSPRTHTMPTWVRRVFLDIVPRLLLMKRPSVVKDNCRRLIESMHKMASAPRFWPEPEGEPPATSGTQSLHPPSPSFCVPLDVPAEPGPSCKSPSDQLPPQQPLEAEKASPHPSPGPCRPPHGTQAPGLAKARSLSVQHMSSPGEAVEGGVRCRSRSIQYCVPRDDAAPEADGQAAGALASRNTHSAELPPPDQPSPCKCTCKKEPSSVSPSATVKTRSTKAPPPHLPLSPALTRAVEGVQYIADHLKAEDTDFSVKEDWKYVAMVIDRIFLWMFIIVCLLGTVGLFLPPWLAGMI
Delta-type opioid receptor, sequence (P41143 whole entry): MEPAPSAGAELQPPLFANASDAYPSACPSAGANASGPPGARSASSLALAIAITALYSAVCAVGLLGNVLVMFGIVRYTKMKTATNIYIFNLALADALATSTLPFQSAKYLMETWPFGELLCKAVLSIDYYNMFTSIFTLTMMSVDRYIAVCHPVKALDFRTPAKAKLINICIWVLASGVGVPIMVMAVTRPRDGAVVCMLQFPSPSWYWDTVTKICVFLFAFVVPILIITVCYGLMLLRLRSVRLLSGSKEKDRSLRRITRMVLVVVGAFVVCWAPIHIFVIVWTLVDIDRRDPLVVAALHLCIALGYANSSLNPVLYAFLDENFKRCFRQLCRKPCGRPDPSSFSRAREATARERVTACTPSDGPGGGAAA
D(1A) dopamine receptor, sequence (P21728 whole entry): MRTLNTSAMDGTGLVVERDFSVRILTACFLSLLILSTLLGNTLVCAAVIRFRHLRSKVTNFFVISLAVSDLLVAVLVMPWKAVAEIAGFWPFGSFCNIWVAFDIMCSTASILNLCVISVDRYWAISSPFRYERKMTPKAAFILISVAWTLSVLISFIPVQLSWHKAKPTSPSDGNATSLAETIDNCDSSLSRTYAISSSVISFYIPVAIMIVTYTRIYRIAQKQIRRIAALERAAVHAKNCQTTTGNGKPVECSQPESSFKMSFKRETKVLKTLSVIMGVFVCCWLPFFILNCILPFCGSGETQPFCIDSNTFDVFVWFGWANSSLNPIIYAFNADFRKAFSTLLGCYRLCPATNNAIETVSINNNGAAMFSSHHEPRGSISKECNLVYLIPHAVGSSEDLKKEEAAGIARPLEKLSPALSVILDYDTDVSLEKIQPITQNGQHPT
Sodium-dependent serotonin transporter, sequence (P31645 whole entry): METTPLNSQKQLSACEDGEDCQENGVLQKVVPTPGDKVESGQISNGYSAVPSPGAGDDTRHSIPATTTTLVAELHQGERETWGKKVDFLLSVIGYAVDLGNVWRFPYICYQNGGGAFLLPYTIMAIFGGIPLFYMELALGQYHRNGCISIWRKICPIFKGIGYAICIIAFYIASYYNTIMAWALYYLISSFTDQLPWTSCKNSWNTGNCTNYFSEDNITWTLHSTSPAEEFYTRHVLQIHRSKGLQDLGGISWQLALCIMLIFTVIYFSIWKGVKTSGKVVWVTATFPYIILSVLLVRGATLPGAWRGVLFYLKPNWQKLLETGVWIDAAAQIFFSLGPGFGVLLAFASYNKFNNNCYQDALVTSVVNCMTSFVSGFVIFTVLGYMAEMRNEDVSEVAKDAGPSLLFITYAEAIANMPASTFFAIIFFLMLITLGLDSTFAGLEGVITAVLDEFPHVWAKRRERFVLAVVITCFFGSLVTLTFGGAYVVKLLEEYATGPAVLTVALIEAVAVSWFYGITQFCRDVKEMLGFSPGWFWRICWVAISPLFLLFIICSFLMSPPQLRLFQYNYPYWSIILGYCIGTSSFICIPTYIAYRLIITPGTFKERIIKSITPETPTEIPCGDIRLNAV
Gamma-aminobutyric acid receptor subunit alpha-1, sequence (P62813 whole entry): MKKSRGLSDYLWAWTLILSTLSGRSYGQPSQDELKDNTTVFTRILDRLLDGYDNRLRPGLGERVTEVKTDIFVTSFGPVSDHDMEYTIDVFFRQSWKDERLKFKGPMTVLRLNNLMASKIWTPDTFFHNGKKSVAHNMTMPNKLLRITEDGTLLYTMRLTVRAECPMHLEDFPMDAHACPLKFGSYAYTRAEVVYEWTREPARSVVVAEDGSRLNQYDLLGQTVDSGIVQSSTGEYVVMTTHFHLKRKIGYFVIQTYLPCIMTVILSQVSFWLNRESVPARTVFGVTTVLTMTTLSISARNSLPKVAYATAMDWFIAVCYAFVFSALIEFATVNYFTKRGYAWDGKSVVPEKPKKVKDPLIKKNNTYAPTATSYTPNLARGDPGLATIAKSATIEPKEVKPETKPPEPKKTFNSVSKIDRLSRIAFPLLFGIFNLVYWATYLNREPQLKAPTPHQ

Take `CC1(C)O[C@@H]2[C@@H](CO[C@@]3(COS(N)(=O)=O)OC(C)(C)O[C@@H]23)O1` [TOPIRAMATE]: the concentration at half-maximal activity (AC50) (in general, the concentration at which the activity in the assay is half-maximal) was over 30 µM in assay [1]; over 30 µM in assay [2]; over 30 µM in assay [3]; over 10 µM in assay [4]; over 30 µM in assay [5]; over 10 µM in assay [6]. In addition, the AC50 was over 10 µM in [7]; over 30 µM in [8]; over 30 µM in assay [9]; over 10 µM in [10]; over 10 µM in assay [11]; over 30 µM in assay [12].
